{"source": "patent US11801257B2", "about": "“Stimulation of an immune response by enantiomers of cationic lipids” (PDS Biotechnology Corporation, priority 2008, dated 2023)", "key": {"DC2.4 dendritic cells": {"test_system": "DC2.4 dendritic cells", "details": "cited from earlier work; for ability to stimulate the expression of CD 80 on DC 2.4 cells (relative potency): comparison by head group and acyl chain; for expression of CD80/CD86: liposomes, DC2.4 cells"}, "TC-1 HPV-positive tumors": {"test_system": "TC-1 HPV-positive tumors", "assay": "TC-1 HPV-positive tumor growth in mice treated with cationic lipid/E7 compositions", "assay_type": "in vivo", "details": "for ability to eradicate HPV-E7 positive tumors in tumor-bearing mice (tumor regression): lipid/E7 formulations, multiple lipid doses, summary statements", "experimental": "TC-1 cells are C57BL/6 mouse lung […] cells that have been transformed with the HPV16 E6 and E7 oncogenes and activated H-ras. Cells were grown in RPMI medium (commercially available from Invitrogen of Carlsbad, CA) supplemented with 10% fetal bovine serum and 100 U/ml penicillin, and […] streptomycin. The MHC class I restricted peptide from the HPV 16 E7 protein (amino acid 11 to 20, YMLDLQPETT [SEQ. ID. NO. 1]) was synthesized by the University of Pittsburgh Peptide Synthesis Facility by solid state synthesis using an Advanced ChemTech model 200 peptide synthesizer and purified by HPLC.\nIn FIG. 12, mice were subcutaneously injected with TC-1 cells on day 0 in order to induce the growth of HPV-positive tumors. The DOTAP/E7 compositions were comprised of racemic mixtures of DOTAP. The mice received DOTAP/E7 compositions containing 10 μg E7 peptide subcutaneously on the opposite side of the abdomen on day 6.\nIn FIGS. 13 and 14, mice were subcutaneously injected with TC-1 cells on day 0 in order to induce the growth of HPV-positive tumors. The mice received R and S-DOTAP/E7 compositions containing 20 μg E7 peptide subcutaneously on the opposite side of the abdomen on day 6. R or S-DOTAP lipid concentrations in the complex varied from 3 to 600 nmole (3, 15, 30, 75, 100, 125, 150, 300, and 600 nmole)."}, "human T lymphocytes": {"test_system": "human T lymphocytes", "details": "cited from earlier work"}, "[1]": {"test_system": "Human HLA-A2 dendritic cells", "assay": "Chemokine and cytokine production by human dendritic cells (Searchlight Protein Array Multiplex ELISA)", "assay_type": "cell-based", "details": "40 micromolar complex", "experimental": "Human HLA-A2 dendritic cells (Lonza, Walkersville, MD), were treated and grown in culture as described above. On day 3 the cells were treated with 40 micromolar DOTAP/E7 complex or the potent immunostimulator lipopolysaccharide (LPS) at 50 micromolar concentrations (positive control). Medium from assay wells was removed and centrifuged at 1300 rpm in a microfuge for 5 minutes to pellet unattached dendritic cells. The supernatants were removed and treated with 10 microliters per ml of Calbiochem (La Jolla, CA) protease inhibitor cocktail set I (Cat. No. 539131) and stored frozen prior to analysis. Samples were analyzed for chemokine and cytokine expression by Searchlight Protein Array Multiplex ELISA assay [Pierce Biotechnology (Woburn, MA)]."}, "purified human T-cells": {"test_system": "purified human T-cells", "assay": "Induction of human T-cell proliferation by R and S enantiomers of DOTAP", "assay_type": "cell-based", "excerpt": "In the present studies, the induction of human T-cell proliferation by the R and S enantiomers of DOTAP was investigated and confirmed using purified T-cells obtained from Lonza, MA."}, "[2]": {"details": "lipid 600 nmole with 20 μg E7 peptide, s.c. day 6 (S-DOTAP P<0.05)"}}, "data": [{"compound": "CCCCCCCCCCCCCC(=O)OCC(COP(=O)(OCC)OCC[N+](C)(C)C)OC(=O)CCCCCCCCCCCCC", "note": "(stereo not drawn) [DMEPC-14:0, 1,2-dimyristoyl-sn-glycero-3-ethylphosphocholine]", "values": [{"measurement": "ability to stimulate the expression of CD 80 on DC 2.4 cells (relative potency)", "setting": "DC2.4 dendritic cells", "result": "more potent"}]}, {"compound": "CCCCCCCCCCCCCCOC(=O)CC[C@H](NC(=O)[C@@H](N)CCCCN)C(=O)OCCCCCCCCCCCCCC", "note": "[DMKD, O,O′-dimyristyl-N-lysyl-glutamate]", "values": [{"measurement": "expression of CD80/CD86", "setting": "DC2.4 dendritic cells", "result": "strongly stimulated"}]}, {"compound": "CCCCCCCCCCCCCCOC(=O)C[C@H](NC(=O)[C@@H](N)CCCCN)C(=O)OCCCCCCCCCCCCCC", "note": "[DMKE, O,O′-dimyristyl-N-lysyl aspartate]", "values": [{"measurement": "expression of CD80/CD86", "setting": "DC2.4 dendritic cells", "result": "strongly stimulated"}]}, {"compound": "CCCCCCCC/C=C\\CCCCCCCC(=O)OC[C@@H](COP(=O)(OCC)OCC[N+](C)(C)C)OC(=O)CCCCCCC/C=C\\CCCCCCCC", "note": "(stereo partly drawn) [DOEPC-18:1, 1,2-dioleoyl-sn-glycero-3-ethylphosphocholine]", "values": [{"measurement": "ability to stimulate the expression of CD 80 on DC 2.4 cells (relative potency)", "setting": "DC2.4 dendritic cells", "result": "more potent"}]}, {"compound": "CCCCCCCC/C=C\\CCCCCCCC(=O)OC[C@H](COP(=O)(O)OCC(O)CO)OC(=O)CCCCCCC/C=C\\CCCCCCCC", "note": "(stereo partly drawn) [DOPG, 1,2-dioleoyl-sn-glycero-3-phosphoglycerol]", "values": [{"measurement": "inhibition of tumor growth", "setting": "TC-1 HPV-positive tumors; anionic lipid liposomes 150 nmole with antigen", "result": "failed to significantly inhibit tumor growth"}]}, {"compound": "CCCCCCCC/C=C\\CCCCCCCC(=O)OC[C@@H](C[N+](C)(C)C)OC(=O)CCCCCCC/C=C\\CCCCCCCC", "note": "[DOTAP, 1,2-dioleoyl-3-trimethylammoninum propane]", "values": [{"measurement": "inhibition of tumor growth", "setting": "TC-1 HPV-positive tumors; liposomes 100 nmole, without E7 peptide", "result": "did not show significant inhibition of tumor growth"}, {"measurement": "tumor growth versus untreated control on day 23", "setting": "TC-1 HPV-positive tumors; racemic DOTAP 15 nmole with 10 μg E7 peptide, s.c. day 6, P<0.05", "result": "partial tumor inhibition effect"}, {"measurement": "tumor growth versus untreated control on day 23", "setting": "TC-1 HPV-positive tumors; racemic DOTAP 30 nmole with 10 μg E7 peptide, s.c. day 6, P<0.01", "result": "enhanced efficacy"}, {"measurement": "tumor growth versus untreated control on day 23", "setting": "TC-1 HPV-positive tumors; racemic DOTAP 75 nmole with 10 μg E7 peptide, s.c. day 6, P<0.001", "result": "most significant tumor regression effect"}, {"measurement": "tumor growth versus untreated control on day 23", "setting": "TC-1 HPV-positive tumors; racemic DOTAP 150 nmole with 10 μg E7 peptide, s.c. day 6, P<0.01", "result": "enhanced efficacy"}, {"measurement": "tumor growth versus untreated control on day 23", "setting": "TC-1 HPV-positive tumors; racemic DOTAP 300 nmole with 10 μg E7 peptide, s.c. day 6, P<0.01", "result": "enhanced efficacy"}, {"measurement": "tumor growth versus untreated control on day 23", "setting": "TC-1 HPV-positive tumors; racemic DOTAP 600 nmole with 10 μg E7 peptide, s.c. day 6", "result": "did not show anti-tumor activity"}, {"measurement": "expansion of T cell colonies in culture", "setting": "human T lymphocytes; HLA-A2+ donor lymphocytes, three stimulations at 7-day interval, three days after third, versus medium control", "result": "extensive expansion of T cell colonies"}, {"measurement": "ERK phosphorylation in T cells", "setting": "human T lymphocytes", "result": "confirmed by ERK phosphorylation"}, {"measurement": "expression of costimulatory molecule CD86 on human T lymphocytes", "setting": "human T lymphocytes", "result": "induced expression of the costimulatory molecule, CD86"}]}, {"compound": "CCCCCCCCCCCC(=O)OC[C@H](COP(=O)(OCC)OCC[N+](C)(C)C)OC(=O)CCCCCCCCCCC", "note": "(stereo partly drawn) [DXEPC-12:0, 1,2-dilauroyl-sn-glycero-3-ethylphosphocholine]", "values": [{"measurement": "ability to stimulate the expression of CD 80 on DC 2.4 cells (relative potency)", "setting": "DC2.4 dendritic cells", "result": "more potent"}]}, {"compound": "CCCCCCCC/C=C\\CCCCCCCC(=O)OC[C@@H](C[N+](C)(C)C)OC(=O)CCCCCCC/C=C\\CCCCCCCC", "note": "[R-DOTAP, 1,2-dioleoyl-3-trimethylammoninum propane]", "values": [{"measurement": "tumor growth versus untreated control on day 23", "setting": "TC-1 HPV-positive tumors; lipid 300 nmole with 20 μg E7 peptide, s.c. day 6, P<0.0001", "result": "most significant tumor regression efficacy"}, {"measurement": "tumor growth versus untreated control on day 23", "setting": "TC-1 HPV-positive tumors; [2]", "result": "did not show significant anti-tumor activity"}, {"measurement": "tumor growth versus untreated control on day 23", "setting": "TC-1 HPV-positive tumors; lipid 75-150 nmole with 20 μg E7 peptide, s.c. day 6, P<0.001", "result": "partial tumor inhibition effect"}, {"measurement": "ability to eradicate HPV-E7 positive tumors in tumor-bearing mice (tumor regression)", "setting": "TC-1 HPV-positive tumors", "result": "results in tumor regression"}, {"measurement": "potency in inducing chemokine and cytokine production relative to DOTAP racemic mixture", "setting": "[1]", "result": "equivalent to or higher than"}, {"measurement": "potency in inducing chemokine and cytokine production, R versus S enantiomer", "setting": "[1]", "result": "more potent immune activator than S-DOTAP"}, {"measurement": "potency in inducing chemokine and cytokine production, R versus S enantiomer", "setting": "[1]; listed as R-enantiomer", "result": "higher potency"}, {"measurement": "induction of human T-cell proliferation", "setting": "purified human T-cells", "result": "induced more T-cell proliferation than S-DOTAP"}]}, {"compound": "CCCCCCCC/C=C\\CCCCCCCC(=O)OC[C@@H](C[N+](C)(C)C)OC(=O)CCCCCCC/C=C\\CCCCCCCC", "note": "[S-DOTAP, 1,2-dioleoyl-3-trimethylammoninum propane]", "values": [{"measurement": "tumor growth versus untreated control on day 23", "setting": "TC-1 HPV-positive tumors; [2]", "result": "induced the slowest tumor growth"}, {"measurement": "tumor growth / tumor regression over the lipid dose series", "setting": "TC-1 HPV-positive tumors; lipid 3 to 600 nmole with 20 μg E7 peptide, s.c. day 6", "result": "did not exhibit the ability to inhibit tumor growth and no tumor regression was observed"}, {"measurement": "ability to eradicate HPV-E7 positive tumors in tumor-bearing mice (tumor regression)", "setting": "TC-1 HPV-positive tumors", "result": "only limited tumor regression"}, {"measurement": "dose range that effectively attenuates tumor growth", "setting": "TC-1 HPV-positive tumors; rodent species, listed as S-enantiomer of DOTAP", "result": "effective over this same range of doses"}, {"measurement": "induction of human T-cell proliferation", "setting": "purified human T-cells", "result": "confirmed"}]}, {"compound": "YMLDLQPETT (Human papillovirus subtype 16 E7 oncogene tumor-associated antigen MHC class I restricted peptide) [E7 peptide, ID; NO]", "values": [{"measurement": "inhibition of tumor growth", "setting": "TC-1 HPV-positive tumors; peptide alone, no lipid (not shown)", "result": "did not show any inhibition of tumor growth"}]}]}
